In general, melting point refers to the temperature of the solid-liquid transition.

The source of these data is patent US6649634B2, “Substituted N-( indole-2-carbonyl-) amides and derivatives as glycogen phosphorylase inhibitors” (Pfizer, Inc., priority 1995, dated 2003).

Consider `CON(C)C(=O)C(O)CNC(=O)c1cc2cc(Cl)ccc2[nH]1` (racemic) [Example 30, 5-Chloro-1H-indole-2-carboxylic acid [(2RS)-hydroxy-2-(methoxy-methyl-carbamoyl)-ethyl]-amide], for which the melting point fell in the range of 192 to 192.5 °C.
